Results taken from patent US9669003B2, “Use of flavone and flavanone derivatives in preparation of sedative and hypnotic drugs” (priority 2012, dated 2017).
Marks after values point to notes of the source that are not given here.

Legend:
Format in all cases: in vivo
Kunming mice [1] = assay: Influence on autonomic activity of normal mice (ZIL-2 mice autonomic activity meter, counts within 10 min); details: intragastric, x ± s, n = 10; for Times of activities in 1 h after drug administration/10 min: 1 h after administration; for Times of activities in 2 h after drug administration/10 min: 2 h after administration; for Times of activities in 24 h after drug administration/10 min: 24 h after administration
Summary of the method: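 Kunming mice (10 per group, half each sex) were dosed at 25, 50 or 100 mg/kg in 0.5% CMC-Na. Spontaneous activity counts over 10 min were recorded at 1 h, 2 h and 24 h post-dose. Groups were compared by ANOVA with Dunnett's test after Levene's check.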

Kunming mice [2] = assay: Influence on hypnosis effect with pentobarbital sodium doses below the threshold (25 mg/kg i.p.); details: pentobarbital sodium 25 mg/kg i.p. 60 min later, sleep observed in 30 min, n = 10
Summary of the method: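 Kunming mice (10 per group, half female) given single oral doses of 25, 50 or 100 mg/kg in 0.5% CMC-Na; 60 min later pentobarbital sodium 25 mg/kg i.p. Sleep (righting reflex lost >1 min) scored within 30 min as percentage asleep, χ2 test.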

Kunming mice [3] = assay: Influence on hypnosis effect with pentobarbital sodium doses at the threshold (50 mg/kg i.p.); details: pentobarbital sodium 50 mg/kg i.p. 60 min later, x ± s, n = 10
Summary of the method: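 Kunming mice (10/group, half each sex) received compound in 0.5% CMC-Na intragastrically at 25, 50 or 100 mg/kg; 60 min later given 0.3% sodium pentobarbital 50 mg/kg i.p. Sleep latency and duration recorded by loss of righting reflex over 1 min; ANOVA and χ2 for sleep incidence.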

[4] = test drug 25 mg/kg intragastric single dose
[5] = test drug 50 mg/kg intragastric single dose
[6] = test drug 100 mg/kg intragastric single dose
[7] = 25 mg/kg intragastric single dose
[8] = 50 mg/kg intragastric single dose
[9] = 100 mg/kg intragastric single dose

| Compound | Times of activities in 1 h after drug administration/10 min (Kunming mice [1]; 25 mg/kg) | Times of activities in 2 h after drug administration/10 min (Kunming mice [1]; 25 mg/kg) | Times of activities in 24 h after drug administration/10 min (Kunming mice [1]; 25 mg/kg) | Times of activities in 1 h after drug administration/10 min (Kunming mice [1]; 50 mg/kg) | Times of activities in 2 h after drug administration/10 min (Kunming mice [1]; 50 mg/kg) | Times of activities in 24 h after drug administration/10 min (Kunming mice [1]; 50 mg/kg) | Times of activities in 1 h after drug administration/10 min (Kunming mice [1]; 100 mg/kg) | Times of activities in 2 h after drug administration/10 min (Kunming mice [1]; 100 mg/kg) | Times of activities in 24 h after drug administration/10 min (Kunming mice [1]; 100 mg/kg) | Number of sleeping animals (Kunming mice [2]; [4]) | rate of sleeping (%) (Kunming mice [2]; [4]) | Number of sleeping animals (Kunming mice [2]; [5]) | rate of sleeping (%) (Kunming mice [2]; [5]) | Number of sleeping animals (Kunming mice [2]; [6]) | rate of sleeping (%) (Kunming mice [2]; [6]) | duration of sleep (Kunming mice [3]; [7]) [min] | time to sleep (Kunming mice [3]; [7]) [min] | duration of sleep (Kunming mice [3]; [8]) [min] | time to sleep (Kunming mice [3]; [8]) [min] | duration of sleep (Kunming mice [3]; [9]) [min] | also measured |
| --- | --- | --- | --- | --- | --- | --- | --- | --- | --- | --- | --- | --- | --- | --- | --- | --- | --- | --- | --- | --- | --- |
| CCCCCc1cc(-c2cc(=O)c3c(CC)cc(CCCCCCl)cc3o2)cc(O)c1Cc1ccccc1 [Example 19] | 282.2 ± 46.5 /10 min | 265.0 ± 45.3 /10 min | 302.8 ± 83.2 /10 min | 234.7 ± 40.1 /10 min | 243.5 ± 48.3 /10 min | 306.2 ± 81.3 /10 min | 229.6 ± 34.8 /10 min | 172.5 ± 39.2 /10 min | 287.8 ± 89.1 /10 min | 3 | 30% | 6 | 60** % | 7 | 70** % | 30.63 ± 20.25 | 4.95 ± 2.00 | 37.67 ± 13.45 | 4.57 ± 1.65 | 52.65 ± 20.15 | time to sleep (Kunming mice [3]; [9]): 3.94 ± 1.23 min |
| C=Cc1c(C#N)cc(-c2cc(=O)c3c(C=CC)cc(Cc4ccccc4)cc3o2)cc1[N+](=O)[O-] [Example 20] | 320.3 ± 49.7 /10 min | 293.6 ± 45.1 /10 min | 317.4 ± 79.6 /10 min | 283.7 ± 51.3 /10 min | 278.6 ± 47.5 /10 min | 305.2 ± 75.4 /10 min | 267.2 ± 55.3 /10 min | 250.3 ± 47.1 /10 min | 305.7 ± 79.7 /10 min | 4 | 40* % | 6 | 60** % | 6 | 60** % | 38.67 ± 21.87 | 4.33 ± 1.58 | 66.34 ± 22.15 | 3.36 ± 1.20 | 68.09 ± 29.56 | time to sleep (Kunming mice [3]; [9]): 3.18 ± 1.10 min |
| CC=Cc1cc(C(=O)O)c2c(=O)cc(-c3cc(C#N)c(F)c(C(=O)O)c3)oc2c1 [Example 22] | 320.3 ± 54.3 /10 min | 291.3 ± 42.0 /10 min | 301.3 ± 76.6 /10 min | 299.4 ± 42.7 /10 min | 255.3 ± 41.3 /10 min | 302.6 ± 91.8 /10 min | 281.5 ± 48.7 /10 min | 225.6 ± 45.3 /10 min | 315.4 ± 78.2 /10 min | 6 | 60** % | 7 | 70** % | 9 | 90*** % | 30.12 ± 20.60 | 4.79 ± 2.43 | 37.78 ± 14.02 | 4.68 ± 1.59 | 52.57 ± 20.74 | time to sleep (Kunming mice [3]; [9]): 3.88 ± 1.18 min |
| CCCc1cc(-c2cc(=O)c3c(I)cc(CCS(=O)(=O)O)cc3o2)cc(C(N)=O)c1C(=O)O [Example 23] | 287.2 ± 45.4 /10 min | 263.2 ± 45.2 /10 min | 307.2 ± 82.1 /10 min | 229.9 ± 40.6 /10 min | 244.7 ± 47.6 /10 min | 300.7 ± 71.4 /10 min | 135.5 ± 35.7 /10 min | 181.0 ± 38.2 /10 min | 292.8 ± 90.5 /10 min | 3 | 30% | 4 | 40* % | 7 | 70** % | 22.77 ± 25.89 | 5.35 ± 2.33 | 28.59 ± 26.98 | 5.17 ± 2.26 | 64.89 ± 45.78 | time to sleep (Kunming mice [3]; [9]): 3.14 ± 1.21 min |
| CC=Cc1cc(Cc2ccccc2)c2c(=O)cc(-c3cc(C#N)c([N+](=O)[O-])c(Cc4ccccc4)c3)oc2c1 [Example 25] | 286.3 ± 48.9 /10 min | 279.9 ± 41.7 /10 min | 295.2 ± 82.3 /10 min | 185.3 ± 51.1 /10 min | 190.2 ± 56.9 /10 min | 296.3 ± 91.1 /10 min | 135.6 ± 39.4 /10 min | 136.8 ± 47.9 /10 min | 281.6 ± 93.7 /10 min | 4 | 40* % | 7 | 70** % | 7 | 70** % | 41.02 ± 18.97 | 4.41 ± 1.67 | 62.87 ± 28.45 | 3.84 ± 1.31 | 70.23 ± 23.65 | time to sleep (Kunming mice [3]; [9]): 3.05 ± 1.20 min |
